According to patent publication US20080161223A1, “Spirobornyl-2,4-(1,3-Dioxanes)] And Their Uses As Fragrance Ingredients” (GIVAUDAN SA, priority 2005, published 2008):

Legend:
[1] = tested on: panel of trained evaluators; assay: Determination of GC-odour threshold concentration; conditions: gas chromatograph with sniff port; racemic mixture of compounds; group of 4 panelists; identical conditions
Description: Determination of GC-odour threshold concentration
According to standard procedures known to the person skilled in the art, threshold concentrations for volatile perfumery compounds are determined on a gas chromatograph equipped with a sniff port by a panel of trained evaluators. The lowest concentration smelled by each panellist is recorded as the individual threshold concentration expressed in ng (absolute amount of compound delivered at the sniff port).
Under identical conditions the odour threshold concentration for racemic mixture of compounds A, B and C respectively was measured and compared by a group of 4 panelists.

[2] = Relative odour threshold of constituents compared to the whole stereoisomer mixture; conditions: ratio rac-1b: rac-1d: 1f
Excerpt: b) A 6:2:1 racemic mixture If of diastereomers of (1R*,2S*,2′S*,4R*,5′R*)-, (1R*,2S*,2′S*,4R*,5′S*)- and (1R*,2S*,2′R*,4R*,5′S*)-1,2′,5′,7,7-pentamethylspiro[bicyclo[2.2.1]heptane-2,4′-[1,3]dioxane] was obtained in 38% overall yield following the experimental procedure of Example 1c, starting from the diol mixture 2d obtained from rac-camphor via 2-(1-methylallyl)-1,7,7-trimethylbicyclo[2.2.1]heptan-2-ol (5a), applying the methodology of Kostova et al (Helv. Chim. Acta 1999, 82, 1385), i.e. route III. The epimeric intermediate enols and diols were not separated. (1R*,2S*,2′S*,4R*,5′S*)- and (1R*,2S*,2′S*,4R*,5′R*)- enatiomeric pairs are the strongest constituents of the mixture. Their relative odour threshold, compared to the whole stereoisomer mixture, were 1:50:4 (rac-1b: rac-1d: 1f).

[3] = Odour description (olfactory evaluation of the compound); conditions: stated within the odour description

Structure (SMILES): CC1OCCC2(CC3CCC2(C)C3(C)C)O1 (racemic) [A]
- odour threshold concentration geometric mean [1]: 22 ng

Structure (SMILES): CC1CC2(CC3CCC2(C)C3(C)C)OC(C)O1 (racemic) [B]
- odour threshold concentration geometric mean [1]: 68 ng

Structure (SMILES): CC1OCC(C)C2(CC3CCC2(C)C3(C)C)O1 (racemic) [Compound 1f, (1RS,2SR,2′RS/SR,4RS,5′RS/SR)-1,2′,5′,7,7-Pentamethylspiro[bicyclo[2.2.1]heptane-2,4′-[1,3]dioxane]]
- relative odour threshold [2]: 4

Structure (SMILES): CC1OCC(C)C2(CC3CCC2(C)C3(C)C)O1 (racemic) [rac-1b]
- relative odour threshold [2]: 1

Structure (SMILES): CC1OCC(C)C2(CC3CCC2(C)C3(C)C)O1 (racemic) [rac-1d]
- relative odour threshold [2]: 50

Structure (SMILES): C[C@@H]1OC[C@H](C)[C@]2(C[C@H]3CC[C@]2(C)C3(C)C)O1 (single isomer, unassigned) [Compound 1c]
- Odour strength compared to another compound [3]: weaker than 1b

Structure (SMILES): CC1OCC(C)C2(CC3CCC2(C)C3(C)C)O1 (stereo not drawn) [C]
- odour threshold concentration geometric mean [1]: 3 ng

Structure (SMILES): CC[C@@H]1OC[C@H](C)[C@]2(C[C@H]3CC[C@]2(C)C3(C)C)O1 [Compound 1h, (1R,2S,2′R,4R,5′S)-2′-Ethyl-1,5′,7,7-tetramethylspiro[bicyclo[2.2.1]heptane-2,4′-[1,3]dioxane]]
- Odour strength compared to another compound [3]: weaker than compound 1g

Structure (SMILES): CC(C)[C@@H]1OC[C@H](C)[C@]2(C[C@H]3CC[C@]2(C)C3(C)C)O1 [Compound 1j, (1R,2S,2′R,4R,5′S)-2′-Isopropyl-1,5′,7,7-tetramethylspiro[bicyclo[2.2.1]heptane-2,4′-[1,3]dioxane]]
- Odour strength compared to another compound [3]: weaker than compound 1i
